Patent EP2033515A1, “Method for improved utilisation of the production potential of transgenic plants” (Bayer CropScience AG, priority 2007, dated 2009)

Assay: logP determination by reversed-phase HPLC (EEC Directive 79/831 Annex V.A8)
Text: Die Messung der logP Werte erfolgte gemäß EEC Directive 79/831 Annex V.A8 durch HPLC (High Performance Liquid Chromatography) an reverser Phase Säulen (C 18), mit nachfolgenden Methoden: • ^[a] Die Bestimmung erfolgt bei pH 2.3 mit 0,1% wässriger Phosphorsäure und Acetonitril als Eluenten (linearer Gradient von 10 bis 95% Acetonitril). • ^[b] Die Bestimmung erfolgt mit LC-MS bei pH 2,7 mit 0,1 % wässriger Ameisensäure und Acetonitril als Eluenten (linearer Gradient von 10% bis 95% Acetonitril). • ^[c] Die Bestimmung erfolgt mit LC-MS bei pH 7,8 mit 0,001 M wässriger Ammoniumhydrogencarbonat-Lösung und Acetonitril als Eluenten (linearer Gradient von 10 % bis 95 % Acetonitril).
Die Eichung erfolgt mit unverzweigten Alkan-2-onen (mit 3 bis 16 Kohlenstoffatomen), deren logP-Werte bekannt sind (Bestimmung der logP-Werte anhand der Retentionszeiten durch lineare Interpolation zwischen zwei aufeinander folgenden Alkanonen). Die lambda-maX-Werte wurden an Hand der UV-Spektren von 200 bis 400 nm in den Absorptionsmaxima ermittelt.

[1] = method [a]: pH 2.3, 0,1% aqueous phosphoric acid and acetonitrile, linear gradient 10 to 95% acetonitrile
[2] = aqueous ammonium hydrogen carbonate/acetonitrile, pH 7.8
[3] = method [c]: LC-MS, pH 7,8, 0,001 M aqueous ammonium hydrogen carbonate and acetonitrile, linear gradient 10 % to 95 % acetonitrile
[4] = 0.1% aqueous phosphoric acid/acetonitrile, pH 2.3

log p [1]	log p [3]	Structure (SMILES)	other results
4,71^[a]	–	CCSC[C@H](C)NC(=O)c1c(I)cccc1C(=O)Nc1ccc(C(F)(C(F)(F)F)C(F)(F)F)c(F)c1C [compound 19]	–
3,93^[a]	–	CSC[C@H](C)NC(=O)c1c(Br)cccc1C(=O)Nc1ccc(C(F)(F)C(F)(F)F)c(F)c1C [compound 15]	–
3,18	–	Cc1cc(C(F)(C(F)(F)F)C(F)(F)F)ccc1NC(=O)c1cccc(I)c1C(=O)N[C@@H](C)CS(C)(=O)=O [compound 1]	chromatographic logP [2]: 3.2
3,57^[a] 3,57^[c]	3,57^[a] 3,57^[c]	CCSC[C@H](C)NC(=O)c1c(I)cccc1C(=O)Nc1ccc(C(C(F)F)C(F)(F)F)cc1F (stereo partly shown) [compound 40]	–
2,78^[a]	–	Cc1c(NC(=O)c2cccc(I)c2C(=O)N[C@@H](C)C[S+](C)[O-])ccc(C(F)(C(F)(F)F)C(F)(F)F)c1F (stereo partly shown) [compound 8]	–
4,41^[a]	–	CSC[C@H](C)NC(=O)c1c(I)cccc1C(=O)Nc1ccc(C(F)(C(F)(F)F)C(F)(F)F)c(F)c1C [compound 25]	–
4,31^[a]	–	CSC[C@H](C)NC(=O)c1c(Br)cccc1C(=O)Nc1ccc(C(F)(C(F)(F)F)C(F)(F)F)c(F)c1C [compound 17]	–
–	–	CSC[C@H](C)NC(=O)c1c(Cl)cccc1C(=O)Nc1ccc(C(F)(F)C(F)(F)F)c(F)c1C [compound 11]	log p (method [b]: LC-MS, pH 2,7, 0,1 % aqueous formic acid and acetonitrile, linear gradient 10% to 95% acetonitrile): 3,94^[b]
3,14^[a]	–	CCS(=O)(=O)C[C@H](C)NC(=O)c1c(Cl)cccc1C(=O)Nc1ccc(C(F)(F)C(F)(F)F)c(Cl)c1C [compound 12]	–
3,78	–	CCSC[C@H](C)NC(=O)c1c(I)cccc1C(=O)Nc1ccc(C(C(F)F)C(F)(F)F)cc1Br (stereo partly shown) [compound 39]	chromatographic logP [2]: 3.8
3,63	3,62	CCSC[C@H](C)NC(=O)c1c(I)cccc1C(=O)Nc1ccc(C(C(F)F)C(F)(F)F)cc1C (stereo partly shown) [compound 35]	–
3,76	3,79	CCSC[C@H](C)NC(=O)c1c(I)cccc1C(=O)Nc1ccc(C(C(F)F)C(F)(F)F)cc1Cl (stereo partly shown) [compound 38]	–
4,04^[a]	–	CSC[C@H](C)NC(=O)c1c(I)cccc1C(=O)Nc1ccc(C(F)(F)C(F)(F)F)c(F)c1C [compound 23]	–
–	–	CCS(=O)(=O)C[C@H](C)NC(=O)c1c(Br)cccc1C(=O)Nc1ccc(C(F)(C(F)F)C(F)(F)F)cc1Br (stereo partly shown) [compound 30]	chromatographic logP [4]: 3.06
3,12	3,18	CCS(=O)(=O)C[C@H](C)NC(=O)c1c(I)cccc1C(=O)Nc1ccc(C(F)(C(F)F)C(F)(F)F)cc1Cl (stereo partly shown) [compound 41]	–
2,86^[a]	–	Cc1c(NC(=O)c2cccc(Br)c2C(=O)N[C@@H](C)CS(C)(=O)=O)ccc(C(F)(F)C(F)(F)F)c1F [compound 16]	–
2,82^[a]	–	Cc1c(NC(=O)c2cccc(Cl)c2C(=O)N[C@@H](C)CS(C)(=O)=O)ccc(C(F)(F)C(F)(F)F)c1F [compound 13]	–
2,89	2,94	CCS(=O)(=O)C[C@H](C)NC(=O)c1c(I)cccc1C(=O)Nc1ccc(C(F)(C(F)F)C(F)(F)F)cc1F (stereo partly shown) [compound 47]	–
3,47^[a]	–	CCS(=O)(=O)C[C@H](C)NC(=O)c1c(I)cccc1C(=O)Nc1ccc(C(F)(C(F)(F)F)C(F)(F)F)c(F)c1C [compound 21]	–
3,01^[a]	–	CCS(=O)(=O)C[C@H](C)NC(=O)c1c(Cl)cccc1C(=O)Nc1ccc(C(F)(F)C(F)(F)F)c(F)c1C [compound 14]	–

log p [1]	log p [3]	Structure (SMILES)	other results
–	2,41	Cc1c(NC(=O)c2cccc(Cl)c2C(=O)N[C@@H](C)C[S+](C)[O-])ccc(C(C(F)(F)F)C(F)(F)F)c1F (stereo partly shown) [compound 51]	chromatographic logP (pH 2.3): 2.5
2,5^[a]	–	Cc1c(NC(=O)c2cccc(I)c2C(=O)N[C@@H](C)C[S+](C)[O-])ccc(C(F)(F)C(F)(F)F)c1F (stereo partly shown) [compound 31]	–
3,51	3,54	CSC[C@H](C)NC(=O)c1c(I)cccc1C(=O)Nc1ccc(C(C(F)F)C(F)(F)F)cc1Br (stereo partly shown) [compound 37]	–
2,71	2,76	C[C@@H](CS(C)(=O)=O)NC(=O)c1c(I)cccc1C(=O)Nc1ccc(C(C(F)F)C(F)(F)F)cc1Br (stereo partly shown) [compound 43]	–
2,58	2,51	Cc1cc(C(C(F)(F)F)C(F)(F)F)c(F)cc1NC(=O)c1cccc(Cl)c1C(=O)N[C@@H](C)C[S+](C)[O-] (stereo partly shown) [compound 52]	–
4,2^[a]	–	CSC[C@H](C)NC(=O)c1c(I)cccc1C(=O)Nc1ccc(C(F)(F)C(F)(F)F)c(Cl)c1C [compound 26]	–
2,69	2,72	C[C@@H](CS(C)(=O)=O)NC(=O)c1c(I)cccc1C(=O)Nc1ccc(C(C(F)F)C(F)(F)F)cc1Cl (stereo partly shown) [compound 42]	–
2,72	2,76	C[C@@H](CS(C)(=O)=O)NC(=O)c1c(I)cccc1C(=O)Nc1ccc(C(F)(C(F)F)C(F)(F)F)cc1F (stereo partly shown) [compound 44]	–
3,19^[a]	–	CCS(=O)(=O)C[C@H](C)NC(=O)c1c(Br)cccc1C(=O)Nc1ccc(C(F)(F)C(F)(F)F)c(Cl)c1C [compound 22]	–
2,61	2,64	Cc1cc(C(F)(C(F)F)C(F)(F)F)ccc1NC(=O)c1cccc(Cl)c1C(=O)N[C@@H](C)CS(C)(=O)=O (stereo partly shown) [compound 49]	–
2,65	2,69	CCS(=O)(=O)C[C@H](C)NC(=O)c1c(I)cccc1C(=O)Nc1ccc(C(C(F)F)C(F)(F)F)cc1F (stereo partly shown) [compound 48]	–
–	2,54	C[C@@H](CS(C)(=O)=O)NC(=O)c1c(I)cccc1C(=O)Nc1ccc(C(C(F)F)C(F)(F)F)cc1F (stereo partly shown) [compound 45]	chromatographic logP (pH 2.3): 2.5
2,97^[a]	–	CC[S+]([O-])C[C@H](C)NC(=O)c1c(I)cccc1C(=O)Nc1ccc(C(F)(C(F)(F)F)C(F)(F)F)c(F)c1C (stereo partly shown) [compound 9]	–
2,97^[a]	–	Cc1c(NC(=O)c2cccc(I)c2C(=O)N[C@@H](C)CS(C)(=O)=O)ccc(C(F)(F)C(F)(F)F)c1F [compound 24]	–
3,27^[a]	–	Cc1c(NC(=O)c2cccc(I)c2C(=O)N[C@@H](C)CS(C)(=O)=O)ccc(C(F)(C(F)(F)F)C(F)(F)F)c1F [compound 27]	–
2,58	2,51	Cc1cc(C(C(F)(F)F)C(F)(F)F)c(F)cc1NC(=O)c1cccc(Br)c1C(=O)N[C@@H](C)C[S+](C)[O-] (stereo partly shown) [compound 53]	–
2,87	2,92	CCS(=O)(=O)C[C@H](C)NC(=O)c1c(I)cccc1C(=O)Nc1ccc(C(C(F)F)C(F)(F)F)cc1Br (stereo partly shown) [compound 46]	–
3,96^[a] 3,96^[c]	3,96^[a] 3,96^[c]	CCSC[C@H](C)NC(=O)c1c(I)cccc1C(=O)Nc1ccc(C(F)(C(F)F)C(F)(F)F)cc1C (stereo partly shown) [compound 33]	–
–	–	CCSC[C@H](C)NC(=O)c1c(I)cccc1C(=O)Nc1ccc(C(F)(C(F)F)C(F)(F)F)cc1Cl (stereo partly shown) [compound 34]	chromatographic logP [4]: 4.2; chromatographic logP [2]: 4.2
3,81^[a]	–	CSC[C@H](C)NC(=O)c1c(Br)cccc1C(=O)Nc1ccc(C(F)(C(F)F)C(F)(F)F)cc1Br (stereo partly shown) [compound 29]	–

Structure (SMILES)	log p [1]	log p [3]	other results
CCSC[C@H](C)NC(=O)c1c(I)cccc1C(=O)Nc1ccc(C(F)(C(F)(F)F)C(F)(F)Br)cc1C (stereo partly shown) [compound 32]	4,68	–	–
